A word on the LD50: it is the dose expected to kill half of the subjects tested.

For data set [1], the system named is mouse. Briefly: Acute toxicity (LD50), mouse ip injection. The conditions noted are these: mouse ip after injection.
Data set [2] relates to mouse. The experiment in a line: Acute toxicity (LD50), mouse ig.
Data set [3] deals with MGC human stomach cancer cells. The experiment in a line: Mouse transplant tumor, MGC human stomach cancer.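 As to all read-outs here: control group received saline vehicle.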 The conditions noted are these: for inhibitive effect on mouse transplant tumor (in words): 125 mg/kg; for Inhibition of tumor growth / Weight of tumor / weight end / weight start: 125 mg/kg once a day for 7 days; for weight end: animal weight at end; for weight start: animal weight at start.
Protocol: Saline solution was used as a control. The positive group CTX was treated with the compounds at an amount of 0.4 ml/20 g. The compounds were applied once a day for consecutive 7 days. The animals were then compensated.

In another data set the test system is B16 malignant melanoma. The experiment in a line: Mouse transplant tumor, B16 malignant melanoma. The conditions noted are these: for Inhibition of tumor growth (%) / Weight of tumor / weight end / weight start: B16, 125 mg/kg once a day for 7 days; for weight end: body weight at end; for weight start: body weight at start; for inhibitive effect on mouse transplant tumor (in words): B16 malignant melanoma, 125 mg/kg.

For data set [4], the system named is AsPc human pancreatic cancer cells. Briefly: Mouse transplant tumor, AsPc human pancreatic cancer.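 As to all read-outs here: Saline-treated mice served as the control group, with a CTX-treated group as positive reference.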 The conditions noted are these: for inhibitive effect on mouse transplant tumor (in words): 125 mg/kg; for Inhibition of tumor growth / Weight of tumor / weight end / weight start: 125 mg/kg once a day for 7 days; for weight end: animal weight at end; for weight start: animal weight at start.
Protocol: (§1) Saline solution was used as a control. The positive group CTX was treated with the compounds at an amount of 0.4 ml/20 g. The compounds were applied once a day for consecutive 7 days.

Another data set relates to 05-732 human bone tumor. The experiment in a line: Mouse transplant tumor, 05-732 human osteosarcoma. The conditions noted are these: for inhibitive effect on mouse transplant tumor (in words): 05-732 human bone tumor, 125 mg/kg; for Inhibtion of tumor growth / Weight of tumor / weight end / weight start: 05-732 human osteosarcoma, 125 mg/kg once a day for 7 days; for weight end: animal weight at end; for weight start: animal weight at start.

Data set [5] has as its system anaplastic thyroid carcinoma TA-K cells. Briefly: Mouse transplant tumor, human anaplastic thyroid carcinoma TA-K.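 As to all read-outs here: Tumor-bearing mice compared against a saline-treated control group.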 The conditions noted are these: for inhibitive effect on mouse transplant tumor (in words): anaplastic thyroid carcinoma TA-K, 125 mg/kg; for Inhibition of tumor growth / Weight of tumor / weight end / weight start: human anaplastic thyroid carcinoma TA-K, 125 mg/kg once a day for 7 days; for weight end: animal weight at end; for weight start: animal weight at start.
Protocol: as §1

Data set [6] has as its system MX-1 human breast cancer cells. Briefly: Mouse transplant tumor, MX-1 human breast cancer.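 As to all read-outs here: mice given saline served as the control group.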 The conditions noted are these: for inhibitive effect on mouse transplant tumor (in words): 125 mg/kg; for Inhibition of tumor growth / Weight of tumor / weight end / weight start: 125 mg/kg once a day for 7 days; for weight end: animal weight at end; for weight start: animal weight at start.
Protocol: as §1

Entries after “also recorded” stand apart in the source; their conditions may differ.

Protocol for 05-732 human bone tumor: as §1
Protocol for B16 malignant melanoma: as §1

Turning to `CC(=O)OCC1OC(OP(=O)(O)N(CCCl)CCCl)CC(Br)C1OC(C)=O` (stereo not drawn) [Compound 10], the LD50 in the data set with mouse [1] worked out at 315.6 mg/kg. This compound also showed an LD50 in the data set with mouse [2] of 2223.7 mg/kg. Further, in data set [3], the “inhibitive effect on mouse transplant tumor (in words)” value (“inhibitive effect” below) is given as “good inhibitive effect; also recorded: significant effect”, the “Inhibition of tumor growth” value stood at 73.2, the Weight of tumor was 0.6 and the weight end was 18.3. Also, in data set [3], the weight start came to 18.3. In the data set with B16 malignant melanoma, the “Inhibition of tumor growth (%)” value worked out at 73.1%, the Weight of tumor is given as 0.7, the weight end is given as 18.3 and the weight start is recorded as 18.3. The “inhibitive effect” value in the data set on B16 malignant melanoma is “good inhibitive effect; also recorded: significant effect”. Also, in data set [4], the “inhibitive effect” value was “good inhibitive effect; also recorded: significant effect”, the “Inhibition of tumor growth” value was determined as 76.9, the Weight of tumor is on record as 0.5 and the weight end amounted to 18.3. The compound also returned a weight start in data set [4] of 18.3. Also, in the data set with 05-732 human bone tumor, the “inhibitive effect” value is recorded as “good inhibitive effect; also recorded: significant effect”, the “Inhibtion of tumor growth” value was determined as 78.4, the Weight of tumor was found to be 0.6 and the weight end is recorded as 18.3. This compound had a weight start in the data set with 05-732 human bone tumor of 18.3. Moreover, in data set [5], the “inhibitive effect” value is on record as “good inhibitive effect; also recorded: significant effect”, the “Inhibition of tumor growth” value is 71.2, the Weight of tumor is listed as 0.8 and the weight end is recorded as 18.3. The same compound had a weight start in data set [5] of 18.3. For the same compound, in data set [6], the “inhibitive effect” value is recorded as “good inhibitive effect; also recorded: significant effect”, the “Inhibition of tumor growth” value is 73.2, the Weight of tumor came to 0.7 and the weight end is 18.3. Also, the weight start in data set [6] is 18.3.
`CC(=O)OCC1OC(OP(=O)(O)N(CCCl)CCCl)C(Br)CC1OC(C)=O` (stereo not drawn) [Compound 12] displayed a 50% lethal dose (LD50) with mouse [1] of 306.4 mg/kg. The compound also gave an LD50 in the data set on mouse [2] of 2101.4 mg/kg. In addition, in data set [3], the “inhibitive effect” value was “significant effect”, the “Inhibition of tumor growth” value is on record as 80.5, the Weight of tumor is given as 0.5 and the weight end is listed as 18.4. Moreover, the weight start in data set [3] came to 18.2. In the data set on B16 malignant melanoma, the “Inhibition of tumor growth (%)” value turned out to be 79.5%, the Weight of tumor is reported as 0.5, the weight end was determined as 18.4 and the weight start is 18.2. For the same compound, in the data set with B16 malignant melanoma, the “inhibitive effect” value is “significant effect”. In data set [4], the “inhibitive effect” value was “significant effect”, the “Inhibition of tumor growth” value came to 77.5, the Weight of tumor was found to be 0.5 and the weight end amounted to 18.4. Further, in data set [4], the weight start is 18.2. Also, in the data set with 05-732 human bone tumor, the “inhibitive effect” value was “significant effect”, the “Inhibtion of tumor growth” value turned out to be 75.1, the Weight of tumor amounted to 0.5 and the weight end came out at 18.4. In addition, in the data set with 05-732 human bone tumor, the weight start is listed as 18.2. For the same compound, in data set [5], the “inhibitive effect” value is recorded as “significant effect”, the “Inhibition of tumor growth” value is recorded as 75.8, the Weight of tumor is given as 0.6 and the weight end was 18.4. The same compound returned a weight start in data set [5] of 18.2. Besides, in data set [6], the “inhibitive effect” value is “significant effect”, the “Inhibition of tumor growth” value stood at 82.1, the Weight of tumor is reported as 0.4 and the weight end amounted to 18.4. The same compound came in with a weight start in data set [6] of 18.2.
As to `CC(=O)OCC1OC(OP(=O)(NCCCl)NCCCl)CC(Br)C1OC(C)=O` (single isomer, unassigned) [Compound 6], the LD50 in the data set with mouse [1] was found to be 307.1 mg/kg; in the data set with mouse [2], 2205.8 mg/kg.
